For 22 molecules, inhibition results are on record in patent US5183899A, “Pyrazole derivative” (Takeda Chemical Industries, Ltd., priority 1989, dated 1993).

SMILES strings stand for the structures.

The assay has as its target T1, angiotensin II receptor (Bos taurus, UniProt P25104).
T1 construct: An A II receptor membrane fraction was prepared from bovine adrenal cortex; from tissue; host or cells: bovine adrenal cortex, receptor membrane fraction
T1 sequence (P25104 1-359): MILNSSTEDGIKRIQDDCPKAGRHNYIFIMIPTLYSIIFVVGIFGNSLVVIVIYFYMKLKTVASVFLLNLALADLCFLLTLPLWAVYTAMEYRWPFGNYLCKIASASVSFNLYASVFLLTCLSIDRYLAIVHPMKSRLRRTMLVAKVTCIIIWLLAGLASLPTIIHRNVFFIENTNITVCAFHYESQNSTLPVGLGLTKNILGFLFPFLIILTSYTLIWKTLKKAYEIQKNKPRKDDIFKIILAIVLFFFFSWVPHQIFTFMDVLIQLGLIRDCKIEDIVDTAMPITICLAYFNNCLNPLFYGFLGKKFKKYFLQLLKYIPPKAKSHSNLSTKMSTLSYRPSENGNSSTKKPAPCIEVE
Put plainly: Inhibition of binding of angiotensin II to angiotensin receptors (125I-angiotensin II binding, receptor membrane fraction from bovine adrenal cortex). To be noted: 125I-A II, room temperature, 1 hour; for inhibition at 10 µM: 1 × 10^-5 (M); for inhibition at 1 µM: 1 × 10^-6 (M). As to the method: Inhibition of binding of angiotensin II to angiotensin receptors
An experiment of inhibition of angiotensin II (A (II) receptor binding was conducted according to the modified Douglas et al's method [Endocrinology,102, 685-695 (1978)]. An A II receptor membrane fraction was prepared from bovine adrenal cortex.
the compound of the present invention (10^-6 -10^-5 M) and ^125 I-angiotensin II (^125 I-A II) (1.85 kBq/50 μl) were added to the receptor membrane fraction and incubated at room temperature for 1 hour. Bound and free ^125 I-A II's were separated through a filter (Whatman GF/B filter), and the radioactivity of ^125 I-A II bound to the receptor was measured.

`CCCCc1cc(C(=O)Nc2ccccc2)nn1Cc1ccc(-c2ccccc2-c2nn[nH]n2)cc1` [compound 7] came in with an inhibition at 10 µM of 97% and an inhibition at 1 µM of 91%.

Turning to `CCCCc1cc(C(=O)OCC(F)(F)F)nn1Cc1ccc(-c2ccccc2-c2nn[nH]n2)cc1` [compound 20], 10 µM produced 94% inhibition and the inhibition at 1 µM was found to be 66%.

`CCCCc1cc(C(=O)NCC)nn1Cc1ccc(-c2ccccc2-c2nn[nH]n2)cc1` [compound 12] yielded an inhibition at 10 µM of 97% and an inhibition at 1 µM of 85%.

With `CCCCc1cc(C(=O)NCc2ccccc2)nn1Cc1ccc(-c2ccccc2-c2nn[nH]n2)cc1` [compound 6], testing at 10 µM gave an inhibition of 95% and 1 µM produced 83% inhibition.

On to `CCCCc1cc(C(=O)N2CCCC2)nn1Cc1ccc(-c2ccccc2-c2nn[nH]n2)cc1` [compound 25], for which testing at 10 µM gave an inhibition of 96% and the inhibition at 1 µM is 77%.

`CCCCc1cc(C(=O)NC(C)(C)C)nn1Cc1ccc(-c2ccccc2-c2nn[nH]n2)cc1` [compound 3]: the inhibition at 10 µM was 94% and the inhibition at 1 µM amounted to 81%.

For `CCCCc1cc(C(=O)NOCc2ccccc2)nn1Cc1ccc(-c2ccccc2-c2nn[nH]n2)cc1` [compound 9], the inhibition at 10 µM came out at 96% and the inhibition at 1 µM is 73%.

On to `CCCCc1cc(C(=O)NC2CCCCC2)nn1Cc1ccc(-c2ccccc2-c2nn[nH]n2)cc1` [compound 5], for which the inhibition at 10 µM came to 98% and the inhibition at 1 µM is 93%.

`CCCc1cc(C(=O)OCC)nn1Cc1ccc(-c2ccccc2-c2nn[nH]n2)cc1` [compound 19]: the inhibition at 10 µM was found to be 90% and the inhibition at 1 µM worked out at 62%.

With `CCCCc1cc(C(=O)N2CCOCC2)nn1Cc1ccc(-c2ccccc2-c2nn[nH]n2)cc1` [compound 27], testing at 10 µM gave an inhibition of 97% and the inhibition at 1 µM came out at 92%.

`CCCCNC(=O)c1cc(CCCC)n(Cc2ccc(-c3ccccc3-c3nn[nH]n3)cc2)n1` [compound 2] came in with an inhibition at 10 µM of 95% and an inhibition at 1 µM of 80%.

On to `CCCCc1cc(C(=O)N2CCN(C(c3ccccc3)c3ccccc3)CC2)nn1Cc1ccc(-c2ccccc2-c2nn[nH]n2)cc1` [compound 31], for which 10 µM produced 89% inhibition and at 1 µM the inhibition was 38%.

Regarding `CCCCc1cc(C(=O)NCCC)nn1Cc1ccc(-c2ccccc2-c2nn[nH]n2)cc1` [compound 13], 10 µM produced 99% inhibition and the inhibition at 1 µM came out at 85%.

`CCCCc1cc(C(=O)OC(C)C)nn1Cc1ccc(-c2ccccc2-c2nn[nH]n2)cc1` [compound 17]: the inhibition at 10 µM was 98% and the inhibition at 1 µM turned out to be 91%.

As to `CCCCc1cc(C(=O)NC(C)C)nn1Cc1ccc(-c2ccccc2-c2nn[nH]n2)cc1` [compound 16], the inhibition at 10 µM was 95% and 1 µM produced 91% inhibition.

Turning to `CCCCc1cc(C(=O)NCCOC)nn1Cc1ccc(-c2ccccc2-c2nn[nH]n2)cc1` [compound 15], the inhibition at 10 µM came out at 95% and the inhibition at 1 µM came out at 88%.

`CCCCc1cc(C(=O)OC)nn1Cc1ccc(-c2ccccc2-c2nn[nH]n2)cc1` [compound 22] displayed an inhibition at 10 µM of 90% and an inhibition at 1 µM of 61%.

Molecule `CCCCc1cc(C(=O)NC2Cc3ccccc3C2)nn1Cc1ccc(-c2ccccc2-c2nn[nH]n2)cc1` [compound 8] registered an inhibition at 10 µM of 95% and an inhibition at 1 µM of 86%.

With `CCCCc1cc(C(=O)N2CCC(C(c3ccccc3)c3ccccc3)CC2)nn1Cc1ccc(-c2ccccc2-c2nn[nH]n2)cc1` [compound 32], the inhibition at 10 µM came to 88% and the inhibition at 1 µM worked out at 32%.

`CCCCc1cc(C(N)=O)nn1Cc1ccc(-c2ccccc2-c2nn[nH]n2)cc1` [compound 14] returned an inhibition at 10 µM of 93% and an inhibition at 1 µM of 75%.

`CCCCc1cc(C(=O)OCC)nn1Cc1ccc(-c2ccccc2-c2nn[nH]n2)cc1` [compound 1]: the inhibition at 10 µM was determined as 92% and the inhibition at 1 µM was 75%.

`CCCCCc1cc(C(=O)OCC)nn1Cc1ccc(-c2ccccc2-c2nn[nH]n2)cc1` [compound 18]: 10 µM produced 88% inhibition and at 1 µM the inhibition was 54%.

The inhibition is how much of the control response was suppressed.
